Ten molecules from patent US10717749B2, “Macrocyclic sulfondiimine compounds” (BAYER PHARMA AKTIENGESELLSCHAFT, priority 2015, dated 2020) can be followed below.

Assay [1] has as its system A2780. In words: Proliferation assay, Cell Titer-Glo. It counts as cell-based. As to conditions: Homo sapiens; A2780, 72-hour exposure; read-out: Inhibition of A2780 cell proliferation IC50. The procedure:
(§1) MOLM-13 human acute myeloid leukemia cells (DSMZ ACC 554) and A2780, human ovarian carcinoma cells (ECACC #93112519) were seeded at a density of 5,000 cells/well (MOLM-13), or 3,000 cells/well (A2780) in a 96-well multititer plate in 150 μL of growth medium supplemented 10% fetal calf serum. After 24 hours, cell viability of one plate (zero-point plate) was determined with the Cell Titer-Glo Luminescent Cell Viability Assay (Promega), whiletest compound was added to the wells of the other plates employing HP Dispenser (final concentrations in the range of 0.0001-10 μM and DMSO controls). Cell viability was assessed after 72-hour exposure with the Cell Titer-Glo Luminescent Cell Viability Assay (Promega). IC50 values (inhibitory concentration at 50% of maximal effect) were determined by means of a 4 parameter fit on measurement data which were normalized to vehicle (DMSO) treated cells (=100%) and measurement readings taken immediately before compound exposure (=0%).

Assay [2] has as its system MOLM-13. In words: Proliferation assay, Cell Titer-Glo. It counts as cell-based. The conditions noted are these: Homo sapiens; MOLM-13, 72-hour exposure; read-out: Inhibition of MOLM-13 cell proliferation IC50. The procedure: as §1
A general note: Cellular ATP, detected with luciferase, serves as a proxy for viable cell number.

For assay [3], the target named is T1, CDK9/CycT1 (Homo sapiens, UniProt P50750).
T1 construct: Recombinant full-length His-tagged human CDK9 and CycT1; His; purchased Invitrogen PV4131; host or cells: insect cells
T1 sequence (P50750 whole entry): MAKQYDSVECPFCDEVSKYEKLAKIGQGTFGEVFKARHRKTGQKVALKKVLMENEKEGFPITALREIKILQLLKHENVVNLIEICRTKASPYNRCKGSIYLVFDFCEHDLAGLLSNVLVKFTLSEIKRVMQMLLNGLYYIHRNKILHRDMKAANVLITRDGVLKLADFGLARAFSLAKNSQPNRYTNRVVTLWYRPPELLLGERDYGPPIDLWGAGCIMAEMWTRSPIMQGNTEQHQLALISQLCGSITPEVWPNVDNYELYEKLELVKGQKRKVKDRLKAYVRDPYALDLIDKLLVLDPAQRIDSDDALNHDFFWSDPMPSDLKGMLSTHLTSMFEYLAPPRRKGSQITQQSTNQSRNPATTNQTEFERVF
T1 sequence (O60563 whole entry partner): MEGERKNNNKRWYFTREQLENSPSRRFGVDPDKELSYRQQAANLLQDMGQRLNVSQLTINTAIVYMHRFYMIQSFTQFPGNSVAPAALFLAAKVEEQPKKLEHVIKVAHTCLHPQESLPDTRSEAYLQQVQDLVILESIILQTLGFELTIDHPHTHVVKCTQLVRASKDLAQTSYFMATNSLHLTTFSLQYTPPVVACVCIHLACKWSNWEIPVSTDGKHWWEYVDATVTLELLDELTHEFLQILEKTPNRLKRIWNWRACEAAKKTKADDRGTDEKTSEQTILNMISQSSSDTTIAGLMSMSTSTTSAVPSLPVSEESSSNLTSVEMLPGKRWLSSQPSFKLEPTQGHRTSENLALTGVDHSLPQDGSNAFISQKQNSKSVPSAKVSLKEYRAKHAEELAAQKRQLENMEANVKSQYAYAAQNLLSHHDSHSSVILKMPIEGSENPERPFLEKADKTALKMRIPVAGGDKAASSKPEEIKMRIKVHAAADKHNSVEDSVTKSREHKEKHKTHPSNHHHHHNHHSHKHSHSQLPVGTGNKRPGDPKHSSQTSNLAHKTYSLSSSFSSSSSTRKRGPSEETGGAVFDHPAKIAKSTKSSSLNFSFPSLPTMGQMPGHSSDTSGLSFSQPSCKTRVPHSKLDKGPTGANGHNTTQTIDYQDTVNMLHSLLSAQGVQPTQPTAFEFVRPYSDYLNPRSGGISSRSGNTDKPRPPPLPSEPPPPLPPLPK
Nature of the assay: CDK9/CycT1 kinase assay (Method 1a, TR-FRET, 10 μM ATP). It counts as biochemical. As to conditions: for IC50: Method 1a, 10 μM ATP; for Selectivity CDK9 over CDK2: IC50 (CDK2)/IC50 (CDK9): Methods 1a and 2a, minimal values. From the text:
1a. CDK9/CycT1 Kinase Assay:
CDK9/CycT1-inhibitory activity of compounds of the present invention was quantified employing the CDK9/CycT1 TR-FRET assay as described in the following paragraphs:
Recombinant full-length His-tagged human CDK9 and CycT1, expressed in insect cells and purified by Ni-NTA affinity chromatography, were purchased from Invitrogen (Cat. No PV4131). As substrate for the kinase reaction biotinylated peptide biotin-Ttds-YISPLKSPYKISEG (C-terminus in amid form) was used which can be purchased e.g. from the company JERINI Peptide Technologies (Berlin, Germany). For the assay 50 nl of a 100 fold concentrated solution of the test compound in DMSO was pipetted into a black low volume 384 well microtiter plate (Greiner Bio-One, Frickenhausen, Germany), 2 μl of a solution of CDK9/CycT1 in aqueous assay buffer [50 mM Tris/HCl pH 8.0, 10 mM MgCl2, 1.0 mM dithiothreitol, 0.1 mM sodium ortho-vanadate, 0.01% (v/v) Nonidet-P40 (Sigma)] were added and the mixture was incubated for 15 min at 22° C. to allow pre-binding of the test compounds to the enzyme before the start of the kinase reaction. Then the kinase reaction was started by the addition of 3 μl of a solution of adenosine-tri-phosphate (ATP, […]=> final conc. in the 5 μl assay volume is 10 μM) and substrate (1.67 μM=> final conc. in the 5 μl assay volume is 1 μM) in assay buffer and the resulting mixture was incubated for a reaction time of 25 min at 22° C. The concentration of CDK9/CycT1 was adjusted depending of the activity of the enzyme lot and was chosen appropriate to have the assay in the linear range, typical concentrations were in the range of 1 μg/mL. The reaction was stopped by the addition of 5 μl of a solution of TR-FRET detection reagents (0.2 μM streptavidine-XL665 [Cisbio Bioassays, Codolet, France] and 1 nM anti-RB(pSer807/pSer811)-antibody from BD Pharmingen [#558389] and 1.2 nM LANCE EU-W1024 labeled anti-mouse IgG antibody [Perkin-Elmer, product no. AD0077]) in an aqueous EDTA-solution (100 mM EDTA, 0.2% (w/v) bovine serum albumin in 100 mM HEPES pH 7.5).
The resulting mixture was incubated 1 h at 22° C. to allow the formation of complex between the phosphorylated biotinylated peptide and the detection reagents. Subsequently the amount of phosphorylated substrate was evaluated by measurement of the resonance energy transfer from the Eu-chelate to the streptavidine-XL. Therefore, the fluorescence emissions at 620 nm and 665 nm after excitation at 350 nm was measured in a HTRF reader, e.g. a Rubystar (BMG Labtechnologies, Offenburg, Germany) or a Viewlux (Perkin-Elmer). The ratio of the emissions at 665 nm and at […] was taken as the measure for the amount of phosphorylated substrate. The data were normalised (enzyme reaction without inhibitor=0% inhibition, all other assay components but no enzyme=100% inhibition).
(In TR-FRET formats the signal depends on donor and acceptor labels being close together.)

For `CN=S(C)(=N)Cc1cc2nc(c1)OCCCOc1cc(F)ccc1-c1cc(ncc1F)N2` (racemic) [Example 4, (rac)-8-[(N,S-dimethylsulfonodiimidoyl)methyl]-15,19-difluoro-3,4-dihydro-2H,11H-10,6-(azeno)-12,16-(metheno)-1,5,11,13-benzodioxadiazacyclooctadecine], the IC50 in assay [1] was 11.7 nM; in assay [2], 4.7 nM; in assay [3], 9.2 nM. Besides, the “Selectivity CDK9 over CDK2: IC50 (CDK2)/IC50 (CDK9)” value (“Selectivity CDK9 over CDK2: IC50” below) in assay [3] stood at 4.1.

In the case of `CS(=N)(=N)Cc1cc2nc(c1)OCCCOc1cc(F)ccc1-c1cc(ncc1F)N2` [Example 1, 15,19-difluoro-8-[(S-methylsulfonodiimidoyl)methyl]-3,4-dihydro-2H,11H-10,6-(azeno)-12,16-(metheno)-1,5,11,13-benzodioxadiazacyclooctadecine], the figures for the IC50 in assay [1], in assay [2] and in assay [3] were 4 nM, 2.8 nM and 3.3 nM, respectively. In assay [3], the “Selectivity CDK9 over CDK2: IC50” value turned out to be 5.0.

Regarding `CS(=N)(Cc1cc2nc(c1)OCCCOc1cc(F)ccc1-c1cc(ncc1F)N2)=NC#N` (racemic) [Example 3, (rac)-[{[15,19-difluoro-3,4-dihydro-2H,11H-10,6-(azeno)-12,16-(metheno)-1,5,11,13-benzodioxadiazacyclooctadecin-8-yl]methyl}(imino)methyl-λ^6-sulfanylidene]cyanamide], the values for the IC50 in assay [1], in assay [2] and in assay [3] were 2.6 nM, 2 nM and 2.9 nM, respectively. Besides, the “Selectivity CDK9 over CDK2: IC50” value in assay [3] came to 2.1.

`CS(=N)(Cc1cc2nc(c1)OCCCOc1cc(F)ccc1-c1cc(ncc1F)N2)=NCCCO` (racemic) [Example 2, (rac)-3-(2-{[15,19-difluoro-3,4-dihydro-2H,11H-10,6-(azeno)-12,16-(metheno)-1,5,11,13-benzodioxadiazacyclooctadecin-8-yl]methyl}-2-methyl-2λ^6-diazathia-1,2-dien-1-yl)propan-1-ol]: the IC50 is 5.4 nM in assay [1], 5.3 nM in assay [2] and 2.9 nM in assay [3]. Moreover, the “Selectivity CDK9 over CDK2: IC50” value in assay [3] was 7.8.

`CS(=N)(Cc1cc2cc(c1)OCCCCOc1cc(F)ccc1-c1nc(ncc1F)N2)=NC1CC1` (racemic) [Example 9, (rac)-9-[(N-cyclopropyl-S-methylsulfonodiimidoyl)methyl]-16,20-difluoro-2,3,4,5-tetrahydro-12H-13,17-(azeno)-11,7-(metheno)-1,6,12,14-benzodioxadiazacyclononadecine]: the IC50 in assay [1] turned out to be 31.3 nM; in assay [2], 22.2 nM; in assay [3], 3.6 nM. Besides, the “Selectivity CDK9 over CDK2: IC50” value in assay [3] is given as 39.7.

In the case of `CS(=N)(=N)Cc1cc2cc(c1)OCCCCOc1c(F)cccc1-c1nc(ncc1F)N2` [Example 7, 16,21-difluoro-9-[(S-methylsulfonodiimidoyl)methyl]-2,3,4,5-tetrahydro-12H-13,17-(azeno)-11,7-(metheno)-1,6,12,14-benzodioxadiazacyclononadecine], the IC50 in assay [1] was 125 nM; in assay [2], 126 nM; in assay [3] it was 5.6 nM. Moreover, in assay [3], the “Selectivity CDK9 over CDK2: IC50” value came to 209.

With `CN=S(C)(=N)Cc1cc2cc(c1)OCCCCOc1cc(F)ccc1-c1nc(ncc1F)N2` (racemic) [Example 10, (rac)-9-[(N,S-dimethylsulfonodiimidoyl)methyl]-16,20-difluoro-2,3,4,5-tetrahydro-12H-13,17-(azeno)-11,7-(metheno)-1,6,12,14-benzodioxadiazacyclononadecine], the IC50 in assay [1] is 29 nM.

Turning to `CS(=N)(=N)Cc1cc2cc(c1)OCCCCOc1cc(F)ccc1-c1nc(ncc1F)N2` [Example 5, 16,20-difluoro-9-[(S-methylsulfonodiimidoyl)methyl]-2,3,4,5-tetrahydro-12H-13,17-(azeno)-11,7-(metheno)-1,6,12,14-benzodioxadiazacyclononadecine], the IC50 in assay [1] came to 11.7 nM; in assay [2] it was 8.2 nM; in assay [3], 3.4 nM. The “Selectivity CDK9 over CDK2: IC50” value in assay [3] was 27.2.

As for `CS(=N)(=N)Cc1cc2cc(c1)OCCCCOc1c(ccc(F)c1F)-c1nc(ncc1F)N2` [Example 6, 16,20,21-trifluoro-9-[(S-methylsulfonodiimidoyl)methyl]-2,3,4,5-tetrahydro-12H-13,17-(azeno)-11,7-(metheno)-1,6,12,14-benzodioxadiazacyclononadecine], the IC50 in assay [1] stood at 123 nM; in assay [2] it was 113 nM; in assay [3], 8.2 nM. The “Selectivity CDK9 over CDK2: IC50” value in assay [3] is given as 174.

Turning to `CS(=N)(=N)Cc1cc2nc(c1C#N)OCCCOc1cc(F)ccc1-c1cc(ncc1F)N2` [Example 8, 15,19-difluoro-8-[(S-methylsulfonodiimidoyl)methyl]-3,4-dihydro-2H,11H-10,6-(azeno)-12,16-(metheno)-1,5,11,13-benzodioxadiazacyclooctadecine-7-carbonitrile], the IC50 in assay [1] is 18.1 nM; in assay [2] it was 4.2 nM; in assay [3], 3.7 nM. In addition, the “Selectivity CDK9 over CDK2: IC50” value in assay [3] is 19.2.
